Data reported in patent publication US20080090900A1, “ANTIBIOTIC BUSHRIN” (University of Karachi, priority 2006, published 2008).

Test system: Clostridium sporogenes
Assay: microbe, parasite or virus in culture
Assay type: cell-based

## Cc1cc(O)c2c(c1)C=CC(C)(c1ccoc1)C2 (stereo not shown) [Compound 1, 7-(3-furyl)-3,7-dimethyl-7,8-dihydro-1-naphthalenol]
  antibacterial activity: less active
